The results in this text go back to ChEMBL document CHEMBL6078648, “Prioritization of Eleven-Nineteen-Leukemia Inhibitors as Orally Available Drug Candidates for Acute Myeloid Leukemia” (J Med Chem, 2024).

Usually CC50 stands for the concentration that lowers cell viability or growth by half.

The source made the active and inactive calls. No cut-off for these calls is given here. Bounds are passed on as bounds.

For series [1], the target named is T1, Protein ENL (Homo sapiens) (UniProt Q03111).
T1 sequence (whole entry): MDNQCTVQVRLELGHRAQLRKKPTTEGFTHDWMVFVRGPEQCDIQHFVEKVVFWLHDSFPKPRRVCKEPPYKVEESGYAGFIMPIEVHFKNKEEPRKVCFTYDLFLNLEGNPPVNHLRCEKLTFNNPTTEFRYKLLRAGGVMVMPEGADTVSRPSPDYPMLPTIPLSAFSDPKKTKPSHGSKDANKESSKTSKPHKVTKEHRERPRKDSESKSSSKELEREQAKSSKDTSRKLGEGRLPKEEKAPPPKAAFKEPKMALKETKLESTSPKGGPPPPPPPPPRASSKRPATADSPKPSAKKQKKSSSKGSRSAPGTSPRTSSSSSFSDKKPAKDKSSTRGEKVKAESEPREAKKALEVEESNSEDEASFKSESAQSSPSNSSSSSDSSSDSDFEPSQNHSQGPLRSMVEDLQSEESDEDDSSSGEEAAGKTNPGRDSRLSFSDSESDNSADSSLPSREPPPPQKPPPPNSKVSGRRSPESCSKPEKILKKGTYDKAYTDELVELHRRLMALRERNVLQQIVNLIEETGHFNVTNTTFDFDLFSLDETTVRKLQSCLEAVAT
Kind of series: Binding affinity to ENL YEATS domain (unknown origin) expressed in HEK293 cells incubated for 2 hrs by NanoBRET assay. Format: cell-based.

Series [2] can be described thus: Metabolic stability in human plasma assessed as parent compound remaining measured after 2 hrs by HPLC-MS/MS analysis. Format: ADME, cell-free.
The subject of series [3] is MOLM-13. The series is described as follows: Cytotoxicity against human MOLM-13 cells assessed as cell viability incubated for 8 days by CCK-8 assay. The following applies: for Activity: time 8.0 day. Format: functional. On the technique in general: Tetrazolium assays rely on reduction of a dye to a coloured formazan, in cell work by metabolically active cells.
The test system of series [4] is MV4-11. The series is described as follows: Cytotoxicity against human MV4-11 cells assessed as cell viability incubated for 8 days by CCK-8 assay. It is filed as functional. The note with it: for Activity: time 8.0 day.
The subject of series [5] is Jurkat. Kind of series: Cytotoxicity against human Jurkat cells assessed as cell viability incubated for 8 days by CCK-8 assay. Format: functional. The note with it: 192 h, time 8 day.
Series [6] is described as follows: Cytotoxicity against human HEK293T cells assessed as cell viability incubated for 8 days by CCK-8 assay. The following applies: time 8 day. It is filed as toxicity, cell-based, HEK-293T.
Series [7] concerns Jurkat. The series is described as follows: Antiproliferative activity against human Jurkat cells assessed as reduction in cell proliferation at 1 uM measured upto 2 weeks. Format: functional, cell-based.
The subject of series [8] is MOLM-13. Kind of series: Induction of cell cycle arrest in human MOLM-13 cells assessed as increase in accumulation of cells at G1 phase at 1 to 10 uM incubated for 72 hrs by PI staining based flow cytometric analysis. Format: functional. The following applies: dose 1-10 µM.
In series [9] the test system is MV4-11. Kind of series: Induction of cell cycle arrest in human MV4-11 cells assessed as increase in accumulation of cells at G1 phase at 1 to 10 uM incubated for 72 hrs by PI staining based flow cytometric analysis. Format: functional. The following applies: dose 1-10 µM. In general terms: A flow cytometer gives signals particle by particle.
Series [10] deals with T1, Protein ENL (Homo sapiens). The series is described as follows: Binding affinity to ENL in human MOLM-13 cells assessed as increase in protein thermal stabilization at 10 uM incubated for 3 to 6 hrs by CETSA analysis. Format: cell-based. The note with it: time 3-6 hrs.
For series [11], the target named is T1, Protein ENL (Homo sapiens). Kind of series: Binding affinity to ENL in human MV4-11 cells assessed as increase in protein thermal stabilization at 10 uM incubated for 3 to 6 hrs by CETSA analysis. It is filed as cell-based. The note with it: time 3-6 hrs.
The test system of series [12] is MOLM-13. Kind of series: Downregulation of HOXA9 expression in human MOLM-13 cells at 1 uM measured for 72 hrs by qRT-PCR analysis. It is filed as functional, cell-based.
Series [13] has as its system MOLM-13. Kind of series: Downregulation of HOXA10 expression in human MOLM-13 cells at 1 uM measured for 72 hrs by qRT-PCR analysis. It is filed as functional, cell-based.
Series [14] relates to MOLM-13. The series is described as follows: Downregulation of MEISI expression in human MOLM-13 cells at 1 uM measured for 72 hrs by qRT-PCR analysis. Format: functional, cell-based.
Series [15] deals with MOLM-13. The series is described as follows: Downregulation of MYB expression in human MOLM-13 cells at 1 uM measured for 72 hrs by qRT-PCR analysis. Format: functional, cell-based. (In qPCR the cycle at which signal appears reflects the starting amount.)
For series [16], the system named is MOLM-13. Kind of series: Downregulation of MYC expression in human MOLM-13 cells at 1 uM measured for 72 hrs by qRT-PCR analysis. It is filed as functional, cell-based.
Series [17] deals with MV4-11. The series is described as follows: Downregulation of HOXA9 expression in human MV4-11 cells at 1 uM measured for 72 hrs by qRT-PCR analysis. Format: functional, cell-based.
For series [18], the system named is MV4-11. The series is described as follows: Downregulation of HOXA10 expression in human MV4-11 cells at 1 uM measured for 72 hrs by qRT-PCR analysis. It is filed as functional, cell-based.
For series [19], the system named is MV4-11. The series is described as follows: Downregulation of MEISI expression in human MV4-11 cells at 1 uM measured for 72 hrs by qRT-PCR analysis. Format: functional, cell-based.
For series [20], the system named is MV4-11. Kind of series: Downregulation of MYB expression in human MV4-11 cells at 1 uM measured for 72 hrs by qRT-PCR analysis. It is filed as functional, cell-based.
Series [21] deals with MV4-11. Kind of series: Downregulation of MYC expression in human MV4-11 cells at 1 uM measured for 72 hrs by qRT-PCR analysis. It is filed as functional, cell-based.
Series [22] is described as follows: Toxicity in NSG mouse implanted with human MOLM-13 assessed as body weight loss at 200 mg/kg, po qd measured every 2 to 3 days. It is filed as organism-based. The following applies: in vivo, time 2-3 day.
A short description of series [23]: Toxicity in NSG mouse implanted with human MOLM-13 assessed as tolerability at 200 mg/kg, po qd measured every 2 to 3 days. Format: organism-based. The following applies: in vivo, time 2-3 day.
In series [24] the test system is MOLM-13. Kind of series: Antitumor activity against human MOLM-13 cells xenografted in NSG mouse at 400 mg/kg, po qd measured from 10 to 15 days. Format: functional, organism-based. The note with it: time 10-15 day.
The nature of series [25]: Toxicity in NSG mouse implanted with human MOLM-13 assessed as tolerability at 200 mg/kg, po qd. The following applies: in vivo. It is filed as organism-based.
Series [26] can be described thus: Toxicity in NSG mouse implanted with human MOLM-13 assessed as body weight loss at 200 mg/kg, po qd. The following applies: in vivo. It is filed as organism-based.
Series [27] deals with T1, Protein ENL (Homo sapiens). The series is described as follows: Inhibition of ENL YEATS domain (unknown origin) (1 to 148 residues) preincubated with compound for 1 hr followed by alpha-bead addition and measured after 30 mins under dark condition by Alphascreen assay. The note with it: time 90.0 min.
Series [28] has as its system MOLM-13. The series is described as follows: Cytotoxicity against human MOLM-13 cells assessed as cell viability upto 100 uM incubated for 72 hrs by CCK-8 assay. It is filed as functional, cell-based.
In series [29] the test system is MV4-11. Kind of series: Cytotoxicity against human MV4-11 cells assessed as cell viability upto 100 uM incubated for 72 hrs by CCK-8 assay. Format: functional, cell-based.
The nature of series [30]: Metabolic stability in human plasma assessed as parent compound remaining measured after 1 hrs by HPLC-MS/MS analysis. Format: ADME, cell-free.

As to `O=C(CCC1=[N+]2C(=Cc3ccc(-c4ccc[nH]4)n3[B-]2(F)F)C=C1)NCCCCSc1ccc(CNC(=O)c2ccc3nncn3c2)cc1`, in series [1], the outcome was Active.
For `CC(C)[C@H]1CCN1Cc1cc2cnc(NC(=O)c3ccc4nncn4c3)cc2[nH]1`, the Stability in series [2] is 94.54%. For the same molecule, the CC50 is 1250 nM in the series with MOLM-13 [3] (MOLM-13, 192 h, time 8 day); 810 nM with MV4-11 [4] (MV4-11, 192 h, time 8 day); more than 64000 nM in the series with Jurkat [5]. Also, the 50% cytotoxic concentration (CC50) at 192 h in series [6] is more than 64000 nM. Further, the result with Jurkat [7] was inactive. The outcome (in the series with MOLM-13 [8]; with MV4-11 [9]; in series [10]; in series [11]; in the series with MOLM-13 [12]; in the series on MOLM-13 [13]) was Active. The outcome in the series on MOLM-13 [14], in the series with MOLM-13 [15], in the series on MOLM-13 [16], in the series on MV4-11 [17], in the series with MV4-11 [18] and in the series with MV4-11 [19] was Active. In addition, the result in the series on MV4-11 [20], with MV4-11 [21] and in the series on MOLM-13 [24] was Active. Moreover, the Activity result in series [22], in series [23], in series [25] and in series [26] was “Non-toxic” each time.
Regarding `O=C(NCc1ccc(CN2CCCCC2)cc1)c1ccc2nncn2c1`, in [27], the inhibition result was “Active”.
Turning to `CC1CCN1Cc1ccc(CNC(=O)c2ccc3nncn3c2)cc1` (centres undefined), the outcome in the series on MOLM-13 [28] and in the series with MV4-11 [29] was Active. The outcome in the series on MOLM-13 [3] and in the series on MV4-11 [4] was inactive.
In the case of `O=C(Nc1cc2[nH]c(CN3CCC3C3CC3)cc2cn1)c1ccc2nncn2c1` (centres undefined), the Stability in series [30] is listed as more than 60%. Further, the cytotoxic concentration (CC50) at 192 h in [6] is more than 64000 nM. In the series with Jurkat [7], the result was inactive.
Consider `CSc1ccc(CNC(=O)c2ccc3nncn3c2)cc1`, for which the outcome in the series on MOLM-13 [28] and with MV4-11 [29] was Active. Further, the outcome in the series on MOLM-13 [3] and in the series with MV4-11 [4] was inactive.
With `O=C(NCc1cccc(CN2CCC2)c1)c1ccc2nncn2c1`, the Stability was 94.94% in series [2] and more than 60% in [30]. Further, the outcome in the series on MOLM-13 [28] and in the series on MV4-11 [29] was Active. For the same molecule, the outcome in the series with MOLM-13 [3] and with MV4-11 [4] was inactive.
